In patent US20230190717A1, “P38 GAMMA INHIBITORS AND METHOD OF USE THEREOF” (City of Hope, priority 2017, published 2023):

What was measured:
[1] = biological target: T1, human recombinant p38 α protein (Homo sapiens, UniProt Q16539); experiment: ADP-Glo in vitro kinase assay, p38α; assay type: biochemical
T1 construct: human recombinant p38 α, β, γ or δ protein (active full-length); purchased SignalChem; host or cells: baculovirus in Sf9 insect cells
Description: (§1) Kinase assay in vitro: Kinase enzyme assays in vitro were performed using ADP-Glo kit (Promega, Wis.). The luminescent ADP-Glo kinase assay measures ADP produced from ATP consumption in a kinase enzyme reaction. All compounds have been tested and shown no inhibition to luciferase activities. Briefly, in this experiment, human recombinant p38 α, β, γ or δ protein (active full-length) expressed by baculovirus in sf9 insect cells (SignalChem, Vancouver, Canada) was homogenized in wells of white opaque 96-well microplates with the kinase buffer that consisted of 40 mM Tris-HCl (pH 7.5), 20 mM MgCl2, 0.1 mg/mL BSA and 50 μM DTT. […] Next, synthetic peptide substrates ([…]) were added to the mixture at final concentration of 0.2 μg/μL, followed by adding ATP at various concentrations. The 50 μL mixture was reacted at room temperature for 60 min. […]
(§2) In vitro kinase assay (ADP-GLO): We identified p38γ inhibitors using in vitro kinase assay by screening a library of kinase inhibitors: The library consists of 244 compounds on three plates (EMD Cat #539744, #539745, and #539746) that are mostly ATP mimics. […] IC50 values were determined using […] software (Biosoft, Cambridge, United Kingdom).

SS patient cells = experiment: Cell viability, SS patient cells; assay type: cell-based, human; conditions: SS patient cells (n=2), 100 nM
Description: Compound, Samples, and Cell Culture: […] Isolation of PBMCs or CD4^+T cells from both patients and healthy donors and culture of CTCL cell lines (Hut78, HH, and H9) were performed as previously described. […] IC50 values were determined using […] software (Biosoft).

p38δ [2] = biological target: T2, p38δ (Homo sapiens, UniProt O15264); experiment: ADP-Glo in vitro kinase assay, p38δ; assay type: biochemical; set-up: human recombinant p38 α, β, γ or δ protein (active full-length); purchased SignalChem; host or cells: baculovirus in Sf9 insect cells
T2 sequence (O15264 1-365): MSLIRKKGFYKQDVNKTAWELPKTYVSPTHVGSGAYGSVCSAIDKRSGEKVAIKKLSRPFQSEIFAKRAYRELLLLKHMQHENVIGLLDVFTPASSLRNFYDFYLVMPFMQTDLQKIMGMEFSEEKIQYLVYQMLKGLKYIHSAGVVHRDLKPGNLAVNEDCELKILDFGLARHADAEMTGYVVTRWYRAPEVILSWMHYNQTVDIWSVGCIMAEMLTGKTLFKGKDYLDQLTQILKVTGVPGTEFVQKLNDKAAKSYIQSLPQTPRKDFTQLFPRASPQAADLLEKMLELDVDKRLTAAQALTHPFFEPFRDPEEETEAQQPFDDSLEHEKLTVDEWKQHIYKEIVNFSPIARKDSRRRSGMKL
Description: as §1, §2

p38 γ = biological target: T3, p38 γ (Homo sapiens, UniProt P53778); experiment: Radiometric in vitro kinase assay (SignalChem), p38 γ; assay type: biochemical; set-up: purchased SignalChem (assay service); conditions: 200 nM
T3 sequence (P53778 1-367): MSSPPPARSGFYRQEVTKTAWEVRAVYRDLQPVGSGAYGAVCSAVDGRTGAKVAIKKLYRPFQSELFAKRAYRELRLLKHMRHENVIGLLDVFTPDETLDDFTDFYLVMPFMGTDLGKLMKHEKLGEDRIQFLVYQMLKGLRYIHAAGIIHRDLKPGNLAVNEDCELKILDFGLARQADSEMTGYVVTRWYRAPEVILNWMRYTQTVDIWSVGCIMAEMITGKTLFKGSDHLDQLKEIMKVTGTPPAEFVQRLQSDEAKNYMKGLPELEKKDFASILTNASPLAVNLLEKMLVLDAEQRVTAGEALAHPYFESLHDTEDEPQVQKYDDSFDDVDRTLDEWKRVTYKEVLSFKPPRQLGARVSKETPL
Description: (§3) Radiometric in vitro kinase assay: Radiometric in vitro kinase assay was performed by [sequence]

p38β = biological target: T4, p38β (Homo sapiens, UniProt Q15759); experiment: ADP-Glo in vitro kinase assay, p38β; assay type: biochemical
T4 construct: human recombinant p38 α, β, γ or δ protein (active full-length); purchased SignalChem; host or cells: baculovirus in Sf9 insect cells
T4 sequence (Q15759 whole entry): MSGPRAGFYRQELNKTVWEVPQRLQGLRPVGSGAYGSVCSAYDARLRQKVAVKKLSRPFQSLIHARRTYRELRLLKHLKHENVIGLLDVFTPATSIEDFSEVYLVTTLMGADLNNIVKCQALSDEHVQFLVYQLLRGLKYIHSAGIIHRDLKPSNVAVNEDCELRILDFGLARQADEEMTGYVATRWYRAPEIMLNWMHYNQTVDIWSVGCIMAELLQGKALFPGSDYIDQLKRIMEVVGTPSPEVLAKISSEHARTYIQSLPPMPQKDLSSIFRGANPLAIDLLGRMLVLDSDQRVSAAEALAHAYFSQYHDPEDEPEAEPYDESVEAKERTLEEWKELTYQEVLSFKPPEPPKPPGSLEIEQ
Description: as §1, §2

HH cells = experiment: HH cell proliferation (cell number); assay type: cell-based, human; conditions: 100 nM and 300 nM, four days
H3K27 acetylation = experiment: Immunofluorescence confocal microscopy of H3K27 acetylation; assay type: cell-based, human; conditions: 800 nM, 10 hr
Description: Immunofluorescence Confocal microscopy: Hut 78 Cells were cytospun unto the slides and fixed with 3.8% paraformaldehyde for 30 min at room temperature (RT) and then permeabilized with 0.25% Triton X-100 in PBS, for 10 min at RT. The cells were washed twice with PBS and blocked in 3% BSA in PBS for 1 h at RT. […] Coverslips were permanently mounted with DAPI (life Technologies) for nuclear staining. Observations were carried out using a confocal laser scanning microscope (zeiss LSM 700). Primary antibodies were used at the following dilutions: anti-ß-tubulin (1:200), H3K27 ac (CST, dilution 1:500), p-p38 (CST, dilution 1:500), DLGH1 (abcam) 1:1000.

[3] = system: phosphorylation of DLGH1 at Ser158; experiment: Western blot of pDLGH1-Ser158 in CTCL cells; assay type: cell-based, human; conditions: SS cells, Hut78 and H9 cells; 50-100 nM
Description: Western blot: Western blots were performed as described previously [5]. Rabbit primary antibodies (Cell Signaling Technology (CST), Danvers, Mass.) were used at the following dilutions: anti-p38α, -p38β, -p38γ, and -p38δ (1:1000), anti-B-tubulin (1:2000), anti-p38 GAPDH 1:1000. […] For detection of p38γ protein level in SS patient samples we used a monoclonal antibody that close to N-terminus of human p38γ MAPK (SAPK3) from Abcam ((ab205926).

[4] = system: normal CD4+ T cells from healthy donors; experiment: Cell viability, healthy CD4+ T cells; assay type: cell-based, human; conditions: 100 nM
Description: Compound, Samples, and Cell Culture: […] Isolation of PBMCs or CD4^+T cells from both patients and healthy donors and culture of CTCL cell lines (Hut78, HH, and H9) were performed as previously described.

p38δ [5] = biological target: T2, p38δ; experiment: Radiometric in vitro kinase assay (SignalChem), p38 δ; assay type: biochemical; set-up: purchased SignalChem (assay service); conditions: 50 nM
Description: as §3

T1 sequence (Q16539 whole entry): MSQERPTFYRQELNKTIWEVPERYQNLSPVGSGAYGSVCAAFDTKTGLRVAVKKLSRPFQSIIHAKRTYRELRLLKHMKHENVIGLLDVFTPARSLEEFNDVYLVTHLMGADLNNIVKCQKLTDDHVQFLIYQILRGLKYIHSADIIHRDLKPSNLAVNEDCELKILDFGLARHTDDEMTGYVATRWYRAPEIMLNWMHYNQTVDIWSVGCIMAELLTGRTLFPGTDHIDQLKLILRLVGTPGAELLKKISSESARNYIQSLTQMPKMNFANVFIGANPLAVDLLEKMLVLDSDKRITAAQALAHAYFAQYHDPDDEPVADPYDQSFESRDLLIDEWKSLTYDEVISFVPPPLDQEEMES

Cc1ccc([N+](=O)[O-])cc1S(=O)(=O)N(C)/N=C/c1cnc2ccc(Br)cn12 [Compound 1]
dose-dependent inhibition of kinase activity [1]: not
cell viability (SS patient cells): significantly reduced viability
IC50 (p38δ [2]): 32.1 to 120 nM
inhibition at 0.2 µM (p38 γ): 59%
dose-dependent inhibition of kinase activity (p38β): not
proliferation of HH cells (HH cells): sufficiently reduced proliferation
H3K27 acetylation (H3K27 acetylation): blocked H3K27 acetylation
phosphorylation of DLGH1 at Ser158 [3]: inhibited phosphorylation of DLGH1 at Ser158
cell viability [4]: spared
inhibition at 0.05 µM (p38δ [5]): 5.4%
